Assay results reported in ChEMBL document CHEMBL1201862, “PubChem BioAssay data set” (2004).
The source made the active and inactive calls.

Tests used:
Chaperone protein dnaK = Chaperone protein dnaK (Escherichia coli, UniProt C3TRK2); experiment: DnaK beta-domain binding affinity, SAR follow-up, orthogonal assay for DnaK modulator project, biophysical, isothermal titration calorimetry, full-length DnaK (AID 1495)
[1] = molecular target: Heat shock 70 kDa protein 1A (Homo sapiens, UniProt P0DMV8); experiment: Hsp70 inhibitors, SAR follow-up, biochemical, fluorescence polarization (AID 1072)
[2] = molecular target: Glyceraldehyde-3-phosphate dehydrogenase (Homo sapiens, UniProt P04406)
[3] = molecular target: Heat shock cognate 71 kDa protein (Homo sapiens, UniProt P11142); experiment: In Vitro Hsc70 Dose Response Fluorescence Polarization Assay. [Related pubchem assays: 1072 ]
Staphylococcus aureus = experiment: Inhibitors of Bacterial Quorum Sensing Structure Activity Relationship (SAR) Analysis: Dose Response Assay. [Related pubchem assays: 700, 527 ]; assay type: functional, organism-based
[4] = molecular target: T1, Eukaryotic translation initiation factor 2-alpha kinase 3 (Homo sapiens, UniProt Q9NZJ5); experiment: Dose response cell-based high-throughput screening assay to measure PERK inhibition. [Related pubchem assays: 1416 ]; assay type: functional
T1 sequence (Q9NZJ5 whole entry): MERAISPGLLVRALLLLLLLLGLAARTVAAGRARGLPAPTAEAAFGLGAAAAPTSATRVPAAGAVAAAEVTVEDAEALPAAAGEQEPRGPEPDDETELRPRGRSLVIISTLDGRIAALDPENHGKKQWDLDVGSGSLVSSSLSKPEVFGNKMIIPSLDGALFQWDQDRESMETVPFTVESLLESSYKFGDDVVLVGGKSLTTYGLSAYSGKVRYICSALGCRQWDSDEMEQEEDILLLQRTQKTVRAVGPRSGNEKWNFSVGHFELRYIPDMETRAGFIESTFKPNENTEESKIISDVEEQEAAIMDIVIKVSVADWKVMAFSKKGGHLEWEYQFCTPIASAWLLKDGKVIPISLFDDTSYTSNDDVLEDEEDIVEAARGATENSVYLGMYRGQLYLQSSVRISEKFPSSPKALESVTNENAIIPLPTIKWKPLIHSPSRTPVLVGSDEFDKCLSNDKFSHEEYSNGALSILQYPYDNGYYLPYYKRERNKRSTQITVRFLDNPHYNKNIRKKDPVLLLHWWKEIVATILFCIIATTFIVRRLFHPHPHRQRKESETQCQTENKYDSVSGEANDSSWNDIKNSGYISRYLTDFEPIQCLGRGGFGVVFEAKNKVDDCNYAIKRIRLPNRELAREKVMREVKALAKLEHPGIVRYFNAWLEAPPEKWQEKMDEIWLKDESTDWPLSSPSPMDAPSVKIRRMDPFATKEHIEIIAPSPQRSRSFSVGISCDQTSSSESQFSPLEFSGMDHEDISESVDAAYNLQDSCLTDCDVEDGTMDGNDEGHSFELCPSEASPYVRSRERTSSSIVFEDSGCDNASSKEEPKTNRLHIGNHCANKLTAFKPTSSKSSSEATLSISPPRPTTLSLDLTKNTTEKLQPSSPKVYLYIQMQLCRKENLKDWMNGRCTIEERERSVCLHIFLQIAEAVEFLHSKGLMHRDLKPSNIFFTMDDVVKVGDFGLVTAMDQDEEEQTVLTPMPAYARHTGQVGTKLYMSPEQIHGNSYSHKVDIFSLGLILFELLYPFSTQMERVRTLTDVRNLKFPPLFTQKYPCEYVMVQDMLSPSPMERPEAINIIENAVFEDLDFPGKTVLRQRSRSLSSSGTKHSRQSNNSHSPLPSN

[5] = molecular target: T1, Eukaryotic translation initiation factor 2-alpha kinase 3; experiment: Counterscreen assay for PERK inhibitors: Dose response cell-based high throughput screening assay to measure inhibition of PERK at 6 hours. [Related pubchem assays: 1522, 1416 ]; assay type: functional
[6] = molecular target: T2, E3 ubiquitin-protein ligase XIAP (Homo sapiens, UniProt P98170); experiment: XIAP antagonists, biochemical, IAP family, fluorescence polarization (AID 1018); assay type: functional
T2 sequence (P98170 whole entry): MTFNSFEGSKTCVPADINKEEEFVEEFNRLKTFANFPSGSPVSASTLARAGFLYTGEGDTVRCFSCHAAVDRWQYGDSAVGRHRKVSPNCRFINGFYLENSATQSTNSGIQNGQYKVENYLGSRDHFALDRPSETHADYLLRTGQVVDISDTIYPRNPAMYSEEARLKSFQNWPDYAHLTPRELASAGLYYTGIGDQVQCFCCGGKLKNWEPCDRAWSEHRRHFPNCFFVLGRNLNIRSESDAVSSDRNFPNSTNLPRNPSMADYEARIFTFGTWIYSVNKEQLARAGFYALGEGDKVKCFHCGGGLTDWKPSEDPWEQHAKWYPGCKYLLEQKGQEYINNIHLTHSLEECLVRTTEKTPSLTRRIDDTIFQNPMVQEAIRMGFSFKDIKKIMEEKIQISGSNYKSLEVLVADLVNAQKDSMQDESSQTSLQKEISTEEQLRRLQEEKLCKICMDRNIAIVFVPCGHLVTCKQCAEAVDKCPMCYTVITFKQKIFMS

[7] = molecular target: Peroxisome proliferator-activated receptor gamma/Nuclear receptor corepressor 2 (Homo sapiens, UniProt P37231+Q9Y618); assay type: functional
Peroxisome proliferator-activated receptor gamma/Nuclear receptor corepressor 2, sequence (P37231 whole entry): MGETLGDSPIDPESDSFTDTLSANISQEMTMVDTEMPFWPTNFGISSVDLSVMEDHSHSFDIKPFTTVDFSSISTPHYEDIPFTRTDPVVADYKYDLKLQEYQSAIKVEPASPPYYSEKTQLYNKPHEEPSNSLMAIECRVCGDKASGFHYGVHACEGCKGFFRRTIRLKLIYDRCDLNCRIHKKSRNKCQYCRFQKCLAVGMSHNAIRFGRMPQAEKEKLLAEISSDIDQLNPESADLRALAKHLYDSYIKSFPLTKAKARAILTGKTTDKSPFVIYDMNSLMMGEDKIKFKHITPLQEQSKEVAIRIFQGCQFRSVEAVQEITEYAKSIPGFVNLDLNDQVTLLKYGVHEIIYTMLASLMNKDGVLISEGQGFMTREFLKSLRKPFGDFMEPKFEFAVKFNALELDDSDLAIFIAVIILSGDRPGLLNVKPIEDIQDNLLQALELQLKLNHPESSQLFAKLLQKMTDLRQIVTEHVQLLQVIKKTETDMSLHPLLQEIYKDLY
Peroxisome proliferator-activated receptor gamma/Nuclear receptor corepressor 2, sequence (Q9Y618 whole entry): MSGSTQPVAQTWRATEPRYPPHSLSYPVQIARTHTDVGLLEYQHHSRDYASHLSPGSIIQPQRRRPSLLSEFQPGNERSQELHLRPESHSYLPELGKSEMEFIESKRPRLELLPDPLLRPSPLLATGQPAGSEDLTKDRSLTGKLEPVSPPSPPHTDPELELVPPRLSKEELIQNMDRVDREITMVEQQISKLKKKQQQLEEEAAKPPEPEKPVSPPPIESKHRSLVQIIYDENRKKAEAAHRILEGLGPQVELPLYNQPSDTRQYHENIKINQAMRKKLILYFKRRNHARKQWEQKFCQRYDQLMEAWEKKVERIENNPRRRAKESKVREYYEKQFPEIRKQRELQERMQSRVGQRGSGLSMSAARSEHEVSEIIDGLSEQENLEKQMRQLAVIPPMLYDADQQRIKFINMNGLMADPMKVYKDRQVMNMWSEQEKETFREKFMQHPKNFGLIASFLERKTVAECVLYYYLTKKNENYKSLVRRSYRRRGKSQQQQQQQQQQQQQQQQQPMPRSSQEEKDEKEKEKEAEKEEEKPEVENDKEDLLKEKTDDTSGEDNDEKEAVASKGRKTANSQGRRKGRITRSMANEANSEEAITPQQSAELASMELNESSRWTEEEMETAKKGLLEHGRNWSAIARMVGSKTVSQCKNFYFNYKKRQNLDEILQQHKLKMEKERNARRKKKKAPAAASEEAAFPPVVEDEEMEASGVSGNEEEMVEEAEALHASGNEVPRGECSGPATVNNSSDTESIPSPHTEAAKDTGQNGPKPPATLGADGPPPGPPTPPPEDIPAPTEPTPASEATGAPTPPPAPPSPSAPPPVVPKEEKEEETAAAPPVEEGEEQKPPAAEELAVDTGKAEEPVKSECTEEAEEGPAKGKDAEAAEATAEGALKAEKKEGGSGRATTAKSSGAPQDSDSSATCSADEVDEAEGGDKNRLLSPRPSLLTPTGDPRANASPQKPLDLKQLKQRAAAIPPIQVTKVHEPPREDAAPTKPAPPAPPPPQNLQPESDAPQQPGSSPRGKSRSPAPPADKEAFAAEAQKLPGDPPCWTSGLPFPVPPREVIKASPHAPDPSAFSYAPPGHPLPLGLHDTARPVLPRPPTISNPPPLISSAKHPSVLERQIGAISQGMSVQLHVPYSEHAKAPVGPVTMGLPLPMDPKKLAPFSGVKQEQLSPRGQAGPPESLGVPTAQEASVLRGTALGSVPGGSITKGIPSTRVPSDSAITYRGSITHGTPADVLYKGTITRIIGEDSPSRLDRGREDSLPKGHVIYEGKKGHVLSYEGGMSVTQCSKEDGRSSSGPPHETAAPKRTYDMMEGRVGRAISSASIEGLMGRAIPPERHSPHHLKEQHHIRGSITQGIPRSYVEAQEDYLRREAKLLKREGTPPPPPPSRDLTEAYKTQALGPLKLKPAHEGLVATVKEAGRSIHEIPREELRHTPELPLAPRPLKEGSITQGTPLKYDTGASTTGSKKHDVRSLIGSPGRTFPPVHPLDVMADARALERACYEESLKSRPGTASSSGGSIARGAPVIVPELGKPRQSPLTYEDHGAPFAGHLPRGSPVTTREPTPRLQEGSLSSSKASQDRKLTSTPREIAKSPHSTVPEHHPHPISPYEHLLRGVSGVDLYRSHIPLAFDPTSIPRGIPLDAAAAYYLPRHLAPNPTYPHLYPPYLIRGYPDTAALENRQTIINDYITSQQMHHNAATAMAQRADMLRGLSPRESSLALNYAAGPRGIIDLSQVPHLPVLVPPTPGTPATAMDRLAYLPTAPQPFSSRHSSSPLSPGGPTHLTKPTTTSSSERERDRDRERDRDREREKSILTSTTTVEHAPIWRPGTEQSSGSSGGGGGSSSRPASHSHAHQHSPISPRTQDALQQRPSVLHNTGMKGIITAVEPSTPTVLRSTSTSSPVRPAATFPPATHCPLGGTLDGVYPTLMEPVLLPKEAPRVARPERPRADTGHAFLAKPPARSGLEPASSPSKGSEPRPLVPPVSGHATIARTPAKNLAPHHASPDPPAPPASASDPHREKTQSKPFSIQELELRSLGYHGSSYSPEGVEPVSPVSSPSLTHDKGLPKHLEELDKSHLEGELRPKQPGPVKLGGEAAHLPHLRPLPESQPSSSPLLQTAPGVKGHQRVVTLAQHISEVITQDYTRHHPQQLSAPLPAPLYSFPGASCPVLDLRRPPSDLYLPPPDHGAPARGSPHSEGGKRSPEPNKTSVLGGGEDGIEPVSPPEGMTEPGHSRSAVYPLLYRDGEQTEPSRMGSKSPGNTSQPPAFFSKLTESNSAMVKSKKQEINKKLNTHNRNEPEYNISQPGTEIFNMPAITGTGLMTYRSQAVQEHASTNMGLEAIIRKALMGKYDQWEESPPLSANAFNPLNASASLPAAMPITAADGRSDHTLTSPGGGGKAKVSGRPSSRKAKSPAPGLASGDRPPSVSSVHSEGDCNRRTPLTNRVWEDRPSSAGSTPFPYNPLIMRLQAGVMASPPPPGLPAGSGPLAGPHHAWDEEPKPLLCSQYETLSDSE

[8] = molecular target: T2, E3 ubiquitin-protein ligase XIAP; experiment: Counter Screen using XIAP-Bir3 for Chemical Antagonists of Bir1/2 domains of IAP-family anti-apoptotic proteins. [Related pubchem assays (depositor defined):AID1018, AID1449, AID1514, AID1638, AID1749, AID1750, AID488957, AID488963]
[9] = molecular target: Photoreceptor-specific nuclear receptor (Homo sapiens, UniProt Q9Y5X4); assay type: functional;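 further: potency for compounds that break the NR2E3 corepressor complex and count as activators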
[10] = luciferase reporter signal reduction – luminescence, H4-C neuroglioblastoma cells, dose response (AID 2458); assay type: functional, cell-based;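 further: H4 neuroglioblastoma cells stably carrying a luciferase reporter gene fusion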
cells = assay type: functional, cell-based
[11] = inhibitors of SNCA 5'UTR-driven translation, confirmation, luminescence, H4 neuroglioblastoma cells, dose confirmation (AID 2454); assay type: functional, cell-based;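 further: H4 neuroglioblastoma cells carrying an alpha-synuclein 5'UTR luciferase reporter; potency for inhibition of the luciferase signal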
[12] = inhibitors of firefly luciferase expression or activity, dose response, H4 neuroglioma cells, luminescence (AID 1990); assay type: functional, cell-based
[13] = inhibitors of SNCA 5'UTR-driven reporter translation, confirmation, H4 neuroglioma cells, luminescence (AID 1988); assay type: functional, cell-based
[14] = molecular target: Eukaryotic translation initiation factor 4H (Homo sapiens, UniProt Q15056); experiment: human eIF4H binding inhibitors, primary screen, translation initiation inhibitor project, biochemical, uHTS, fluorescence polarization (AID 2012)
[15] = molecular target: Polyadenylate-binding protein 1 (Homo sapiens, UniProt P11940); experiment: PABP poly(A) RNA binding inhibitors, primary screen, biochemical, fluorescence polarization, uHTS (AID 2014)
Cytochrome P450 2D6 = Cytochrome P450 2D6 (Homo sapiens, UniProt P10635); experiment: qHTS Assay for Inhibitors and Substrates of Cytochrome P450 2D6. [Related pubchem assays: 410 ]; assay type: ADME; details: read-out: Potency
Cytochrome P450 2D6, sequence (P10635 whole entry): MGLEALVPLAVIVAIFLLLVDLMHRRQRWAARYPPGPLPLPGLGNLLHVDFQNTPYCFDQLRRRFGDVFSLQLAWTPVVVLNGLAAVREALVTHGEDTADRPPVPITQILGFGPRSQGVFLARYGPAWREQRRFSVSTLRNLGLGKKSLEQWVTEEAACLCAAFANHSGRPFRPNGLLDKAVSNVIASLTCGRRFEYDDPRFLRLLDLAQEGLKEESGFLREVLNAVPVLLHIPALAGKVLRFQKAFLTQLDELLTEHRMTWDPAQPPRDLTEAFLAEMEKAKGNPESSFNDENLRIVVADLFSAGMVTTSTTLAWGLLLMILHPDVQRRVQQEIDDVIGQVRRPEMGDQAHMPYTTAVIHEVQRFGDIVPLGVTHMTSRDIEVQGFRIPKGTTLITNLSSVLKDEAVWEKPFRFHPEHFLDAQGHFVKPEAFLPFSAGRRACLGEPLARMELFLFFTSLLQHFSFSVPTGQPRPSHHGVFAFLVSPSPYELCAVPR

[16] = molecular target: Transitional endoplasmic reticulum ATPase (Homo sapiens, UniProt P55072); experiment: p97 ATPase inhibitors, dose response, biochemical (AID 1534)
[17] = molecular target: Transitional endoplasmic reticulum ATPase (Homo sapiens, UniProt P55072, C522A); experiment: C522A mutant p97 ATPase inhibitors, dose response, counter-screen for p97 inhibitor project, biochemical, luminescence (AID 1544)

O=C(NCc1cc(Cl)cc(Cl)c1)c1cccs1
Kd (Chaperone protein dnaK): 2.8 µM (active)

O=C(Nc1ccc2c(c1)C1C=CCC1C(C(=O)O)N2)c1ccc(Cl)cc1Cl (stereo unspecified)
IC50 [1]: > 100 µM (not active)
IC50 [2]: > 100 µM (not active)
IC50 [3]: > 100 µM (not active)

O=C(Nc1ccc2c(c1)OCO2)C(c1ccccc1)N1CCCCC1 (stereo unspecified)
IC50 (Staphylococcus aureus): 1.26 µM (active)

CCC(C(=O)Nc1cccc(C(=O)O)c1C)c1ccccc1 (stereo unspecified)
EC50 [4]: > 55.7 µM (not active)
EC50 [5]: > 55.7 µM (not active)

Cc1cccc(-n2c(=S)[nH]c3c(oc4ccccc43)c2=O)c1
IC50 [6]: > 100 µM (not active)
IC50 [7]: 6.64 µM (active)
IC50 [8]: > 100 µM (inactive)
IC50 [9]: 5.11 µM (active)

O=Cc1cn(Cc2ccc(F)cc2)c2ccccc12
EC50 [10]: 1.85 µM (active)
EC50 (cells): 1.05 µM (active)
EC50 [11]: > 12 µM (inconclusive)
EC50 [12]: 7.56 µM (active)
EC50 [13]: < 0.1 µM (active)

CC(C)C(OC(=O)c1ccco1)C(=O)NCc1ccco1 (stereo unspecified)
IC50 [14]: 58 µM (active)
IC50 [15]: > 100 µM (inactive)

CCN1CCC[C@@H]1CNC(=O)c1cc(S(N)(=O)=O)ccc1OC
AC50 (Cytochrome P450 2D6): 39.8 µM (inconclusive)

COC(=O)c1ccccc1NC(=S)NC(=O)c1ccccc1C
IC50 [16]: > 50 µM (not active)
IC50 [17]: > 50 µM (not active)
